Laboratory results from paper PMC4814262 (Cancer Science, 2016).

Target: LAT1 (Homo sapiens, UniProt Q01650)
Experiment: radiolabelled uptake in Xenopus oocytes
Type: cell-based
Conditions: Na+-free uptake buffer (choline-Cl), pH 7.5, room temperature, 15 min; labelled compound

Chain of LAT1 (Q01650 whole entry): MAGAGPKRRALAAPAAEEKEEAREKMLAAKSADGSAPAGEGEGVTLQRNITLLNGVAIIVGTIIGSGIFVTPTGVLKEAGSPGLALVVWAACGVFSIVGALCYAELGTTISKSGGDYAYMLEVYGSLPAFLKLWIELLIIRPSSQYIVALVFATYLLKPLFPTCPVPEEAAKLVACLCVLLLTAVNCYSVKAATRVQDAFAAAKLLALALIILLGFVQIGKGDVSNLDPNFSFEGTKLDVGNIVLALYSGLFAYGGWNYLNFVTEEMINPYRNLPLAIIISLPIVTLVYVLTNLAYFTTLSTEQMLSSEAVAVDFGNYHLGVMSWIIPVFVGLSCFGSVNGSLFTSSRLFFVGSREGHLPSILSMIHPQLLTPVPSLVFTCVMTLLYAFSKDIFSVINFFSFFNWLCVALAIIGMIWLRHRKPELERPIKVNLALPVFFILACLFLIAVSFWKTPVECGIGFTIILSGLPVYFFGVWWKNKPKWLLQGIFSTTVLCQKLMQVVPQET
Chain of LAT1 (P08195 103-630 partner): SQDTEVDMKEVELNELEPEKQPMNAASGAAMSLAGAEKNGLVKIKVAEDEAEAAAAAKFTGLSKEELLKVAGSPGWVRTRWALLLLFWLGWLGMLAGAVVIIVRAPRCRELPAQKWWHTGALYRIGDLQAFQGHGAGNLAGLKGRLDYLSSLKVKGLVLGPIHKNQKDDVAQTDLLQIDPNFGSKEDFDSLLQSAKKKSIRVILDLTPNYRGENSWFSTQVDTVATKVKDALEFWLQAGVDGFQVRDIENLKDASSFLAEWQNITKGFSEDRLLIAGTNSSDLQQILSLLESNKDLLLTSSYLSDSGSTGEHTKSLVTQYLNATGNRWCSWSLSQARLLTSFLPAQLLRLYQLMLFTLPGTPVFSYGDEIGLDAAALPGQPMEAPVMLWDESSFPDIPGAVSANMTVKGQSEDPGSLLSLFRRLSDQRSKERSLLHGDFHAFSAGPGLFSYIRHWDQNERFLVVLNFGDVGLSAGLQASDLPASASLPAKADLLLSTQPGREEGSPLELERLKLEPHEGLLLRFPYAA

Km: 72.7 ± 11 µM
SMILES: C[C@](N)(Cc1ccc(O)c(F)c1)C(=O)O [FAMT, 3‐fluoro‐L‐α‐methyl[carboxyl‐^14C]tyrosine]
